pIC50: −log10 of the molar value.
Tests used:
Rattus norvegicus = assay: Protection against tacrine-induced Sprague-Dawley rat tremulous jaw model assessed as decrease in tremor jaw movement at 25 mg/kg, po pretreated with compound for 90 mins followed by tacrine addition and measured after 5 mins; format: functional; design: scale not given: the % may be the effect or the level left; details: time 95 min, 1.583 h
[1] = Antagonist activity at human alpha6-alpha3/beta2/beta3 V273S mutant nAChR expressed in HEK293 cells assessed as nicotine-induced intracellular calcium release incubated for 15 mins by FLIPR analysis; format: cell-based; details: HEK293, 0.25 h
[2] = biological target: Neuronal acetylcholine receptor; alpha3/beta4 (Homo sapiens, UniProt P30926+P32297); assay: Antagonist activity at human alpha3/beta4 nAChR expressed in HEK293 cells assessed as nicotine-induced intracellular calcium release incubated for 15 mins by FLIPR analysis; format: cell-based
Neuronal acetylcholine receptor; alpha3/beta4, sequence (P30926 whole entry): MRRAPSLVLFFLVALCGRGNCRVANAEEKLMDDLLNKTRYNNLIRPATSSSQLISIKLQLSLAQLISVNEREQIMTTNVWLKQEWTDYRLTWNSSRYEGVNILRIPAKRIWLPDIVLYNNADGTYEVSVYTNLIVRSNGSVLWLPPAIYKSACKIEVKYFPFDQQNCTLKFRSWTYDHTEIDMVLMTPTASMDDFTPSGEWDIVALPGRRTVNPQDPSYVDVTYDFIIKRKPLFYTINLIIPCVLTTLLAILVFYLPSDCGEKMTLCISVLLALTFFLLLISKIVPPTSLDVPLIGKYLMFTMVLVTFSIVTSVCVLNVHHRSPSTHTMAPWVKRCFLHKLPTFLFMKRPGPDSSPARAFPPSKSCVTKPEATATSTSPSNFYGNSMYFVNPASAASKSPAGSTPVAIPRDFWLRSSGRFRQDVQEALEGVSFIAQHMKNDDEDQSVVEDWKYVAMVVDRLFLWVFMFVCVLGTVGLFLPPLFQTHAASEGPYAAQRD
Neuronal acetylcholine receptor; alpha3/beta4, sequence (P32297 whole entry): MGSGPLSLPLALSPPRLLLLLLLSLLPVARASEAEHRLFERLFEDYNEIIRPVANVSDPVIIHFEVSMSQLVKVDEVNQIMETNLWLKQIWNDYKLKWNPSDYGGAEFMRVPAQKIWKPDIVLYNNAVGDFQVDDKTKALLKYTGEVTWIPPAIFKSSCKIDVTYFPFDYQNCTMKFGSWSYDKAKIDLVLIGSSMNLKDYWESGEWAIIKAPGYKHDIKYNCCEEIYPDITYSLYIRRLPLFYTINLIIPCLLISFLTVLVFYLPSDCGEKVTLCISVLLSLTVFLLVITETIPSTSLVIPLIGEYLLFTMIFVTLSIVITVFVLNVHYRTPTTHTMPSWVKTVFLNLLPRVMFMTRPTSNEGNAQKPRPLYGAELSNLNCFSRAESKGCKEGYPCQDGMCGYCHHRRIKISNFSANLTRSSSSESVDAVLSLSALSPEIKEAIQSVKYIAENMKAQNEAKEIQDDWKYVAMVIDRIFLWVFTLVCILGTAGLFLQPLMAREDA

[3] = biological target: Neuronal acetylcholine receptor; alpha4/beta2 (Homo sapiens, UniProt P17787+P43681); assay: Antagonist activity at human alpha4/beta2 nAChR expressed in HEK293 cells assessed as nicotine-induced intracellular calcium release incubated for 15 mins by FLIPR analysis; format: cell-based
Neuronal acetylcholine receptor; alpha4/beta2, sequence (P17787 whole entry): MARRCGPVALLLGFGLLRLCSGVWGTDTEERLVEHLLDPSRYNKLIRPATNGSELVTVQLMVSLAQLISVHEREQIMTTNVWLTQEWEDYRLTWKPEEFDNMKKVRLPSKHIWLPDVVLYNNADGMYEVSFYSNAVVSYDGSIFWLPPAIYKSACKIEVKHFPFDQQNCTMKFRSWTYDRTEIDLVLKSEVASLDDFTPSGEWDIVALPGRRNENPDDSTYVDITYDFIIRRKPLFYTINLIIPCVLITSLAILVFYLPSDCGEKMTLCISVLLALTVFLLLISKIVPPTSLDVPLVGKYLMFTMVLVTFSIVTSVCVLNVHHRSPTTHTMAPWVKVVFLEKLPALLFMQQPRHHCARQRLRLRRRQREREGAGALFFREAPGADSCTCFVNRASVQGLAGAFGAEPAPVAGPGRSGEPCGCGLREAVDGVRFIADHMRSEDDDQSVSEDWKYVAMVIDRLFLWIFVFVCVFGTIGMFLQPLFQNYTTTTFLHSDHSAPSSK
Neuronal acetylcholine receptor; alpha4/beta2, sequence (P43681 whole entry): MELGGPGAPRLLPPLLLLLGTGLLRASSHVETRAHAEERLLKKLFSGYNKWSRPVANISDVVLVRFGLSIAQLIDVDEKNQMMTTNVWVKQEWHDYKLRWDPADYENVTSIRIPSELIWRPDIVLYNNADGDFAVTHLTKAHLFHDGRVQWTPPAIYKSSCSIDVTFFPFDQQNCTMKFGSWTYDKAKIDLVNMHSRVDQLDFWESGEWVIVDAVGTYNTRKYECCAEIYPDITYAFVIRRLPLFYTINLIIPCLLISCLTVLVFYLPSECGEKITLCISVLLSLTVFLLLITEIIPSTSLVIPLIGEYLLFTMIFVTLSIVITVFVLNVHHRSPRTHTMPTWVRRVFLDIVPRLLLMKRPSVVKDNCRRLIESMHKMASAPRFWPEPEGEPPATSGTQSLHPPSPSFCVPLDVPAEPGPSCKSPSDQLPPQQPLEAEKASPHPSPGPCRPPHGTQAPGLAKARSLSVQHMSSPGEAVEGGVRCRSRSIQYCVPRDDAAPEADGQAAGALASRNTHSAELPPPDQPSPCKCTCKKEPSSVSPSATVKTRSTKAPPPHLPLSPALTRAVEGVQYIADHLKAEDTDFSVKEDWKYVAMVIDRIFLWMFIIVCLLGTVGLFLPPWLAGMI

[4] = Metabolic stability in human liver microsome assessed as clearance preincubated for 60 mins followed by NADPH addition and measured after 60 mins by LC-MS/MS analysis; format: ADME; details: liver microsomes, time 120 min, read-out: CLH
[5] = Metabolic stability in rat liver microsome assessed as clearance preincubated for 60 mins followed by NADPH addition and measured after 60 mins by LC-MS/MS analysis; format: ADME; details: liver microsomes, time 120 min, read-out: CLH
[6] = Intrinsic clearance in Sprague-Dawley rat at 0.5 mg/kg, iv by LC-MS/MS analysis; format: ADME, organism-based; details: in vivo
[7] = Volume of distribution at steady state in Sprague-Dawley rat at 0.5 mg/kg, iv by LC-MS/MS analysis; format: ADME, organism-based; details: in vivo, read-out: Vdss
[8] = Oral bioavailability in Sprague-Dawley rat 3 mg/kg by LC-MS/MS analysis; format: ADME, organism-based; details: in vivo
[9] = Drug exposure in Sprague-Dawley rat brain at 3 mg/kg, po measured for 2 hrs by LC-MS/MS analysis; format: ADME, organism-based; details: read-out: Drug uptake
[10] = Metabolic stability in human liver microsome assessed as clearance at 10 uM incubated upto 2 hrs by LC-MS/MS analysis; format: ADME; details: liver microsomes, read-out: CLH
[11] = Metabolic stability in rat liver microsome assessed as clearance at 10 uM incubated upto 2 hrs by LC-MS/MS analysis; format: ADME; details: liver microsomes, read-out: CLH

`CCCN(CCC)CCc1cccc2c1CC(=O)N2` [ROPINIROLE] gave an Activity (Rattus norvegicus) of 17.5%.

For `CN1[C@@H]2CCC[C@H]1C[C@H](NC(=O)c1cc(-c3ccc(C(F)(F)F)cc3)n(C)n1)C2`, the pIC50 [1] was 6.88, the pIC50 [2] was 5.20 and the pIC50 [3] was 6.00. It also gave a microsomal CLint [4] of 1.2 µL/min/mg, a microsomal CLint [5] of 3.2 µL/min/mg and a CL [6] of 20.4 mL/min/kg. It also gave a Vd [7] of 23.4 L/kg, a bioavailability [8] of 86.6% and a concentration at 2 h [9] of 140 nM.

`CN1CCC(NC(=O)c2cc(-c3ccc(C(F)(F)F)cc3)nn2C)CC1` gave a pIC50 [1] of 5.42.

For `Cc1ccc(C)c(Cn2nc(C)cc2C(=O)N[C@@H]2C[C@H]3CCC[C@@H](C2)N3C)c1`, the pIC50 [1] was 6.15.

In the case of `COc1ccc(-c2cc(C(=O)N[C@@H]3CN(C)CCC3(F)F)nn2C)c(Cl)c1`, the pIC50 [1] was 7.03, the microsomal CLint at 10 µM [10] was 61.3 µL/min/mg and the microsomal CLint at 10 µM [11] was less than 6.4 µL/min/mg.

Reference: ChEMBL document CHEMBL5365451, “Discovery of CVN417, a Novel Brain-Penetrant α6-Containing Nicotinic Receptor Antagonist for the Modulation of Motor Dysfunction” (J Med Chem, 2023)
